Several values for one entry are separate records, joined by “and”; a condition that tells them apart may be missing. Equal entries are not always repeated. Inconclusive results and toxic doses are left out. Cut-off read from the data, not from the text of the source: active = T/C of 150% or more; inactive = T/C below 125%. Peptide text beside a SMILES is read from it. * marks the point of attachment. Cbz = O=C(OCc1ccccc1)*; CH2Cl = ClC*
Test system: L1210 leukemia ip in BDF1 mice, survival T/C
Experiment: NCI In Vivo Anticancer Drug Screen. Data for tumor model L1210 Leukemia (intraperitoneal) in B6D2F1 (BDF1) mice
Conditions: endpoint: mean survival time, higher = longer survival
Summary of the method: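 Read-out is survival time, reported as the treated-group measurement over the vehicle-control measurement.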

[1] = dose: 100.0 mg/kg/injection, schedule: Q04DX003 (ip), vehicle: saline with Tween-80
[2] = dose: 100.0 mg/kg/injection, schedule: Q01DX009 (ip), vehicle: Klucel (hydroxypropylcellulose) (HPC)
[3] = dose: 200.0 mg/kg/injection, schedule: Q01DX009 (ip), vehicle: Klucel (hydroxypropylcellulose) (HPC)
[4] = dose: 400.0 mg/kg/injection, schedule: Q01DX009 (ip), vehicle: Klucel (hydroxypropylcellulose) (HPC)
[5] = dose: 100.0 mg/kg/injection, schedule: Q01DX001 (ip), vehicle: saline
[6] = dose: 200.0 mg/kg/injection, schedule: Q01DX001 (ip), vehicle: saline
[7] = dose: 100.0 mg/kg/injection, schedule: Q01DX009 (ip), vehicle: saline
[8] = dose: 100.0 mg/kg/injection, schedule: Q04DX003 (ip), vehicle: saline
[9] = dose: 200.0 mg/kg/injection, schedule: Q04DX003 (ip), vehicle: saline
[10] = dose: 100.0 mg/kg/injection, schedule: Q01DX001 (ip), vehicle: Klucel (hydroxypropylcellulose) (HPC)
[11] = dose: 200.0 mg/kg/injection, schedule: Q01DX001 (ip), vehicle: Klucel (hydroxypropylcellulose) (HPC)

Measured: T/C

CCCN(CCC)CCCCCO
inactive: dose: 50.0 mg/kg/injection, schedule: Q01DX009 (ip), vehicle: saline with Tween-80 102 % of control | dose: 100.0 mg/kg/injection, schedule: Q01DX009 (ip), vehicle: saline with Tween-80 106 % of control | [1] 94 % of control | dose: 200.0 mg/kg/injection, schedule: Q01DX009 (ip), vehicle: saline with Tween-80 102 % of control | dose: 200.0 mg/kg/injection, schedule: Q04DX003 (ip), vehicle: saline with Tween-80 102 % of control

NC(=O)c1cn[nH]c1/N=N/N(CCF)CCF
inactive: dose: 9.5 mg/kg/injection, schedule: Q01DX001 (ip), vehicle: other 111 % of control | dose: 10.0 mg/kg/injection, schedule: Q01DX009 (ip), vehicle: other 119 % of control | dose: 19.0 mg/kg/injection, schedule: Q01DX001 (ip), vehicle: other 124 % of control

Cc1ccc(C)c(NS(=O)(=O)c2ccc(Cl)c([N+](=O)[O-])c2)c1
inactive: [2] 110 % of control | [3] 105 % of control | [4] 107 % of control

OC1(c2ccccc2)c2ccccc2C(O)(c2ccccc2)c2cc3c(cc21)CCCC3 (centres undefined)
inactive: dose: 100.0 mg/kg/injection, schedule: Q04DX002 (ip), vehicle: Klucel (hydroxypropylcellulose) (HPC) 102 % of control | dose: 200.0 mg/kg/injection, schedule: Q04DX002 (ip), vehicle: Klucel (hydroxypropylcellulose) (HPC) 91 % of control | dose: 400.0 mg/kg/injection, schedule: Q04DX002 (ip), vehicle: Klucel (hydroxypropylcellulose) (HPC) 91 % of control

CC(=O)Nc1cc(C)cc(C)c1
inactive: dose: 50.0 mg/kg/injection, schedule: Q01DX001 (ip), vehicle: carboxymethylcellulose (CMC) 105 % of control | dose: 100.0 mg/kg/injection, schedule: Q01DX001 (ip), vehicle: carboxymethylcellulose (CMC) 111 % of control | dose: 200.0 mg/kg/injection, schedule: Q01DX001 (ip), vehicle: carboxymethylcellulose (CMC) 111 % of control | dose: 400.0 mg/kg/injection, schedule: Q01DX001 (ip), vehicle: carboxymethylcellulose (CMC) 105 % of control

NC(=O)c1c(CC(=O)O)nn(-c2ccccc2)c1N
inactive: dose: 50.0 mg/kg/injection, schedule: Q01DX009 (ip), vehicle: Klucel (hydroxypropylcellulose) (HPC) 94 % of control | [2] 98 % of control | [3] 102 % of control

Br[CH2][Sn]([Br])([Br])[CH2]Br
inactive: dose: 6.25 mg/kg/injection, schedule: Q04DX002 (ip), vehicle: saline with Tween-80 101 % of control | dose: 12.5 mg/kg/injection, schedule: Q04DX002 (ip), vehicle: saline with Tween-80 101 % of control | dose: 25.0 mg/kg/injection, schedule: Q04DX002 (ip), vehicle: saline with Tween-80 116 % of control

CCCCCCCCCCCCCCCCCc1nc(N)nc(N(C)C)n1
inactive: dose: 25.0 mg/kg/injection, schedule: Q04DX003 (ip), vehicle: saline with Tween-80 97 % of control | dose: 50.0 mg/kg/injection, schedule: Q04DX003 (ip), vehicle: saline with Tween-80 96 % of control | [1] 97 % of control

CCCCCCC(=O)C(CCCC)(C(=O)OCC)C(=O)OCC
inactive: [2] 101 % of control | [3] 104 % of control | [4] 101 % of control

O=Cc1ccc(OC(=O)Nc2ccc([N+](=O)[O-])cc2)cc1
inactive: [2] 92 % of control | [3] 90 % of control | [4] 95 % of control

CN1CCN(Cn2cnc3c2c(=O)n(C)c(=O)n3C)CC1
inactive: dose: 75.0 mg/kg/injection, schedule: Q01DX001 (ip), vehicle: saline 92 % of control | dose: 150.0 mg/kg/injection, schedule: Q01DX001 (ip), vehicle: saline 100 % of control | dose: 300.0 mg/kg/injection, schedule: Q01DX001 (ip), vehicle: saline 122 % of control

COC(=O)CN1C(c2ccccc2)=CS(=O)(=O)C=C1c1ccccc1
inactive: [5] 101 % of control | [6] 97 % of control | dose: 400.0 mg/kg/injection, schedule: Q01DX001 (ip), vehicle: saline 93 % of control

CCCCCOC(=O)C1OC1(CC)c1ccccc1 (centres undefined)
inactive: dose: 100.0 mg/kg/injection, schedule: Q04DX002 (ip), vehicle: saline 97 % of control | dose: 200.0 mg/kg/injection, schedule: Q04DX002 (ip), vehicle: saline 101 % of control | dose: 400.0 mg/kg/injection, schedule: Q04DX002 (ip), vehicle: saline 120 % of control

CCOP1(=O)NC(=O)C=C(C)N1 (centres undefined)
inactive: dose: 60.0 mg/kg/injection, schedule: Q04DX002 (ip), vehicle: sodium bicarbonate 102 % of control | dose: 120.0 mg/kg/injection, schedule: Q04DX002 (ip), vehicle: sodium bicarbonate 97 % of control

Clc1ccc2c(Cl)ncnc2c1
inactive: dose: 13.0 mg/kg/injection, schedule: Q01DX Z (ip), vehicle: methylcellulose (MC) 100 % of control | dose: 20.0 mg/kg/injection, schedule: Q01DX Z (ip), vehicle: methylcellulose (MC) 100 % of control | dose: 30.0 mg/kg/injection, schedule: Q01DX Z (ip), vehicle: methylcellulose (MC) 104 % of control | dose: 45.0 mg/kg/injection, schedule: Q01DX Z (ip), vehicle: methylcellulose (MC) 105 % of control | dose: 50.0 mg/kg/injection, schedule: Q01DX009 (ip), vehicle: saline 96 % of control | dose: 50.0 mg/kg/injection, schedule: Q04DX003 (ip), vehicle: saline 97 % of control | [5] 99 % of control | [7] 100 % of control | [8] 97 % of control | [6] 91 % of control | [9] 94 % of control

CC12CC(=O)OC1(C)C1CCC2C1 (centres undefined)
inactive: dose: 6.25 mg/kg/injection, schedule: Q01DX009 (ip), vehicle: acetone 111 % of control | dose: 6.25 mg/kg/injection, schedule: Q04DX003 (ip), vehicle: acetone 101 % of control | dose: 12.5 mg/kg/injection, schedule: Q01DX001 (ip), vehicle: acetone 96 % of control | dose: 12.5 mg/kg/injection, schedule: Q01DX009 (ip), vehicle: acetone 92 % of control | dose: 12.5 mg/kg/injection, schedule: Q04DX003 (ip), vehicle: acetone 101 % of control | dose: 25.0 mg/kg/injection, schedule: Q01DX001 (ip), vehicle: acetone 112 % of control | dose: 25.0 mg/kg/injection, schedule: Q04DX003 (ip), vehicle: acetone 97 % of control

CCN(CC)CCN(C)C(=O)C(c1ccccc1)c1ccccc1
inactive: [8] 98 % of control | [9] 93 % of control

CN(C)C(=O)C1C2CCC(C2)C1C(=O)N(C)C (centres undefined)
inactive: [8] 103 % of control | [9] 96 % of control | dose: 400.0 mg/kg/injection, schedule: Q04DX003 (ip), vehicle: saline 100 % of control

OC1C(OCc2ccccc2)OC(COCc2ccccc2)C(OC2OC(COCc3ccccc3)C(OCc3ccccc3)C(OCc3ccccc3)C2OCc2ccccc2)C1OCc1ccccc1 (centres undefined)
inactive: dose: 200.0 mg/kg/injection, schedule: Q01DX009 (ip), vehicle: alcohol 94 % of control | dose: 400.0 mg/kg/injection, schedule: Q01DX009 (ip), vehicle: alcohol 86 % of control

CCCN(CCC)CC(C)=O
inactive: [7] 98 % of control | [8] 107 % of control | dose: 200.0 mg/kg/injection, schedule: Q01DX009 (ip), vehicle: saline 101 % of control | [9] 109 % of control

CC(C)CC(NC(=O)CNC(=O)OCc1ccccc1)C(=O)NC(Cc1ccccc1)C(=O)CCl (stereo not drawn) (Cbz-Gly-Leu-Phe-CH2Cl; configuration not given here)
inactive: dose: 25.0 mg/kg/injection, schedule: Q04DX003 (ip), vehicle: Klucel (hydroxypropylcellulose) (HPC) 102 % of control | dose: 50.0 mg/kg/injection, schedule: Q04DX003 (ip), vehicle: Klucel (hydroxypropylcellulose) (HPC) 106 % of control | dose: 75.0 mg/kg/injection, schedule: Q04DX003 (ip), vehicle: Klucel (hydroxypropylcellulose) (HPC) 94 % of control and 90 % of control | [10] 92 % of control | [11] 92 % of control

CC(CO)CCC(=O)C(C)C1C(=O)CC2CC3CC(O)CCC3(C)CC21C (centres undefined)
inactive: [10] 98 % of control | [11] 105 % of control | dose: 400.0 mg/kg/injection, schedule: Q01DX001 (ip), vehicle: Klucel (hydroxypropylcellulose) (HPC) 119 % of control

Cc1cccc(SC(=O)Nc2cccc(Cl)c2C)c1
inactive: dose: 25.0 mg/kg/injection, schedule: Q01DX009 (ip), vehicle: gum acacia 100 % of control | dose: 50.0 mg/kg/injection, schedule: Q01DX009 (ip), vehicle: gum acacia 99 % of control | dose: 100.0 mg/kg/injection, schedule: Q01DX009 (ip), vehicle: gum acacia 97 % of control and 89 % of control
